{"source": "patent US3943172A", "about": "“Derivatives of 2-amino-(1,2,3,4-tetrahydronaphthalene), the preparation and use thereof” (priority 1972, dated 1976)", "key": {"[1]": {"tested_on": "premature heart contractions", "assay": "oral antiarrhythmic activity in rats using aconitine (dose of aconitine to first extrasystoles)", "format": "in vivo", "settings": "75 mg/kg, 75 minutes before aconitine perfusion, acid addition salts; for % Activity versus Lidocaine: relative to lidocaine; for % Activity versus Procainamide: relative to procainamide", "experimental": "The method used for these tests is described hereafter:\nMale or female rats with a body-weight ranging from 380 to 450 g.\n3.12 μg aconitine nitrate/1 ml physiological saline.\nSolution of the compound to be tested:\n0.75% in distilled water.\nSix random selected animals are required for each compound to be tested. The compound is administered by oral route at the dose of 75 mg/kg (1 ml of the 0.75% solution/100 g of body-weight) 75 minutes before the intravenous perfusion of the aconitine solution is initiated.\nControl groups of animals are treated only with distilled water (1 ml/100 g).\n60 minutes after the administration of the compound to be tested, the animals are anesthesized by an intraperitoneal injection of Pentobarbital (50 mg/kg) and the jugular vein is dissected.\nA catheter is introduced in the vein and fixed by a ligature.\nThe ECG (D II derivation) is then continuously recorded. The perfusion of the aconitine solution is started 75 minutes after the administration of the compound to be tested.\nThe volume delivered by the injection device being 0.287 ml/minute, the dose of aconitine nitrate administered is 0.895 μg/minute (0.20 - 0.24 μg/100 g/minute according to the minimal and maximal weight of the animals).\nThe experience is stopped as soon as the first extrasystoles are appearing and the time elapsed from the beginning of the perfusion is noted.\nThe results are expressed as the mean total dose of aconitine injected in a group of animals.\nThe relative activity between a tested compound and a reference substance (lidocaine, procainamide) is computed in the following way: [formula] where: A(x) = activity of tested compound X (in %)\nX = mean dose of aconitine in the animals treated by compound X\nC = mean dose of aconitine injected in the untreated animals (controls)\nR = mean dose of aconitine injected in the animals treated by the reference substances."}, "[2]": {"tested_on": "tachycardias and fibrillation of ventricular origin", "settings": "cited from earlier work; for oral activity: known antiarrhythmic agents, in words"}}, "data": [{"compound": "CCN(CC)CCN(c1ccccc1)C1CCc2ccccc2C1", "note": "(stereo not drawn) [1 H2 H N-diethyl, 2-[N-phenyl-N-(β-diethylaminoethyl)]-amino(1,2,3,4-tetrahydronaphthalene)]", "values": [{"measurement": "% Activity versus Lidocaine", "setting": "[1]", "value": 439, "unit": "%"}, {"measurement": "% Activity versus Procainamide", "setting": "[1]", "value": 560, "unit": "%"}]}, {"compound": "CCN(CC)CCN(c1ccccc1)C1CCc2cc(OC)ccc2C1", "note": "(stereo not drawn) [1 H2 OCH3 N-diethyl, 2-[N-phenyl-N-(β-diethylaminoethyl)]-amino-6-methoxy-(1,2,3,4-tetrahydronaphthalene)]", "values": [{"measurement": "% Activity versus Lidocaine", "setting": "[1]", "value": 173, "unit": "%"}, {"measurement": "% Activity versus Procainamide", "setting": "[1]", "value": 220, "unit": "%"}]}, {"compound": "COc1ccc2c(c1)CCC(N(CCN(C)C)c1ccccc1)C2", "note": "(stereo not drawn) [1 H2 OCH3 N-dimethyl, 2-[N-phenyl-N-(β-dimethylaminoethyl)]-amino-6-methoxy-(1,2,3,4-tetrahydronaphthalene)]", "values": [{"measurement": "% Activity versus Lidocaine", "setting": "[1]", "value": 57, "unit": "%"}, {"measurement": "% Activity versus Procainamide", "setting": "[1]", "value": 72, "unit": "%"}]}, {"compound": "COc1ccc2c(c1)CCC(N(CCN1CCCCC1)c1ccccc1)C2", "note": "(stereo not drawn) [1 H2 OCH3 piperidino, 2-[N-phenyl-N-(β-piperidinoethyl)]-amino-6-methoxy-(1,2,3,4-tetrahydronaphthalene)]", "values": [{"measurement": "% Activity versus Lidocaine", "setting": "[1]", "value": 103, "unit": "%"}, {"measurement": "% Activity versus Procainamide", "setting": "[1]", "value": 131, "unit": "%"}]}, {"compound": "CNCCC(=O)N(c1ccccc1)C1CCc2ccccc2C1", "note": "(stereo not drawn) [2 0 H NH-methyl, 2-[N-phenyl-N-(β-methylaminopropionyl)]-amino-(1,2,3,4-tetrahydronaphthalene)]", "values": [{"measurement": "% Activity versus Lidocaine", "setting": "[1]", "value": 769, "unit": "%"}, {"measurement": "% Activity versus Procainamide", "setting": "[1]", "value": 982, "unit": "%"}]}, {"compound": "CCN(CC)CCCN(c1ccccc1)C1CCc2ccccc2C1", "note": "(stereo not drawn) [2 H2 H N-diethyl, 2-[N-phenyl-N-(γ-diethylaminopropyl)]-amino-(1,2,3,4-tetrahydronaphthalene)]", "values": [{"measurement": "% Activity versus Lidocaine", "setting": "[1]", "value": 563, "unit": "%"}, {"measurement": "% Activity versus Procainamide", "setting": "[1]", "value": 719, "unit": "%"}]}, {"compound": "CN(C)CCCN(c1ccccc1)C1CCc2ccccc2C1", "note": "(stereo not drawn) [2 H2 H N-dimethyl, 2-[N-phenyl-N-(γ-dimethylaminopropyl)]-amino-(1,2,3,4-tetrahydronaphthalene)]", "values": [{"measurement": "% Activity versus Lidocaine", "setting": "[1]", "value": 41, "unit": "%"}, {"measurement": "% Activity versus Procainamide", "setting": "[1]", "value": 52, "unit": "%"}]}, {"compound": "CCNCCCN(c1ccccc1)C1CCc2ccccc2C1", "note": "(stereo not drawn) [2 H2 H NH-ethyl, 2-[N-phenyl-N-(γ-ethylaminopropyl)]-amino-(1,2,3,4-tetrahydronaphthalene)]", "values": [{"measurement": "% Activity versus Lidocaine", "setting": "[1]", "value": 703, "unit": "%"}, {"measurement": "% Activity versus Procainamide", "setting": "[1]", "value": 897, "unit": "%"}]}, {"compound": "CNCCCN(c1ccccc1)C1CCc2ccccc2C1", "note": "(stereo not drawn) [2 H2 H NH-methyl, 2-[N-phenyl-N-(γ-methylaminopropyl)]-amino-(1,2,3,4-tetrahydronaphthalene)]", "values": [{"measurement": "% Activity versus Lidocaine", "setting": "[1]", "value": 288, "unit": "%"}, {"measurement": "% Activity versus Procainamide", "setting": "[1]", "value": 368, "unit": "%"}]}, {"compound": "c1ccc(N(CCCN2CCCCC2)C2CCc3ccccc3C2)cc1", "note": "(stereo not drawn) [2 H2 H piperidino, 2-[N-phenyl-N-(γ-piperidinopropyl)]-amino-(1,2,3,4-tetrahydronaphthalene)]", "values": [{"measurement": "% Activity versus Lidocaine", "setting": "[1]", "value": 62, "unit": "%"}, {"measurement": "% Activity versus Procainamide", "setting": "[1]", "value": 78, "unit": "%"}]}, {"compound": "c1ccc(N(CCCN2CCCC2)C2CCc3ccccc3C2)cc1", "note": "(stereo not drawn) [2 H2 H pyrrolidino, 2-[N-phenyl-N-(γ-pyrrolidinopropyl)]-amino-(1,2,3,4-tetrahydronaphthalene)]", "values": [{"measurement": "% Activity versus Lidocaine", "setting": "[1]", "value": 268, "unit": "%"}, {"measurement": "% Activity versus Procainamide", "setting": "[1]", "value": 342, "unit": "%"}]}, {"compound": "CCN(CC)CCCN(c1ccccc1)C1CCc2cc(OC)ccc2C1", "note": "(stereo not drawn) [2 H2 OCH3 N-diethyl, 2-[N-phenyl-N-(γ-diethylaminopropyl)]-amino-6-methoxy-(1,2,3,4-tetrahydronaphthalene)]", "values": [{"measurement": "% Activity versus Lidocaine", "setting": "[1]", "value": 96, "unit": "%"}, {"measurement": "% Activity versus Procainamide", "setting": "[1]", "value": 123, "unit": "%"}]}, {"compound": "CCN(CC)CC(=O)Nc1c(C)cccc1C", "note": "[lidocaine]", "values": [{"measurement": "oral activity", "setting": "[2]", "value": "too low"}]}, {"compound": "CCN(CC)CCNC(=O)c1ccc(N)cc1", "note": "[procainamide]", "values": [{"measurement": "side effects", "setting": "[2]", "value": "hypotension"}, {"measurement": "oral activity", "setting": "[2]", "value": "too short"}]}]}
